Patent US20230109833A1, “METABOLICALLY STABLE N-ACYLAMINOOXADIAZOLES USEFUL AS ANTIBACTERIAL AGENTS” (MICROBIOTIX, INC., priority 2017, published 2023)
≈ marks a conversion by molar mass, not a printed value.

How the values were obtained:
[1] = Single dose PK (IV and PO); type: in vivo; settings: mice, 10 mg/kg PO
[2] = tested on: MRSA strain BAA-1717 (TCH1516; USA300); experiment: Murine efficacy, neutropenic thigh model; type: in vivo, mouse; settings: 25 mg/kg PO once 2 h after infection; CFU 24 hrs post dosage; compared to untreated controls
Adrenergic α1A = target: T1, Adrenergic α1A (Rattus norvegicus, UniProt P43140); type: binding; settings: 10 μM compound, Hit Profile Panel
T1 sequence (P43140 1-466): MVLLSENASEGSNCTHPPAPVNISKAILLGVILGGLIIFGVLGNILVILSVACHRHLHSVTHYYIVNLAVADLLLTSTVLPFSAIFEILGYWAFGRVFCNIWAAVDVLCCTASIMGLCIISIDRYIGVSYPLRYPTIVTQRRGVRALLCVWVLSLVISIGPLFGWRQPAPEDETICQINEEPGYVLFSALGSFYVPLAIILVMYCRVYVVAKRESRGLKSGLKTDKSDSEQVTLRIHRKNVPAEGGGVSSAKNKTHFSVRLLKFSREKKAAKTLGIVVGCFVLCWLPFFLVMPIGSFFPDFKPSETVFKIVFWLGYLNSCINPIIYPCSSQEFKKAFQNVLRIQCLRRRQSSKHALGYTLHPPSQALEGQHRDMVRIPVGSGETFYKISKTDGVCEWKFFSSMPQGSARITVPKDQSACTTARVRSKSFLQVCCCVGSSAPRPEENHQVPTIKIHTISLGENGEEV

Adrenergic α2A = target: T2, Adrenergic α2A (Homo sapiens, UniProt P08913); type: binding; settings: 10 μM compound, Hit Profile Panel
T2 sequence (P08913 1-465): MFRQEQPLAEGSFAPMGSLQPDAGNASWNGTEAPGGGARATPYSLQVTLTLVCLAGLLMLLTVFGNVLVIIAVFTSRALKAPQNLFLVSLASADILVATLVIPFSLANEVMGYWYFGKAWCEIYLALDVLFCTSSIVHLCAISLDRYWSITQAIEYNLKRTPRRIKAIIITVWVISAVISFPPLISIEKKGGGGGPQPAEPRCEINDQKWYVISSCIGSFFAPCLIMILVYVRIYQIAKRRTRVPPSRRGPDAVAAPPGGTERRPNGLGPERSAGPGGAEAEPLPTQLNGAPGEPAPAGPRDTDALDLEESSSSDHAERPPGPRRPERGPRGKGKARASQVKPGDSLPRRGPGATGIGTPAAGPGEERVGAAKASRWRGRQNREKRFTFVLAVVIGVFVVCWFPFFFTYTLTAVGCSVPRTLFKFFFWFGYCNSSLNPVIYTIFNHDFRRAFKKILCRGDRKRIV

Adrenergic β1 = Adrenergic β1 (Homo sapiens, UniProt P08588); type: binding; settings: 10 μM compound, Hit Profile Panel
[3] = tested on: Calcium Channel L-type, Dihydropyridine; type: binding; settings: rat; 10 μM compound; Hit Profile Panel
Cannabinoid CB1 = Cannabinoid CB1 (Homo sapiens, UniProt P21554); type: binding; settings: 10 μM compound, Hit Profile Panel
Dopamine D2s = Dopamine D2s (Homo sapiens, UniProt P14416); type: binding; settings: 10 μM compound, Hit Profile Panel
[4] = tested on: Glutamate, NMDA, Phencyclidine; type: binding; settings: rat; 10 μM compound; Hit Profile Panel
Imidazoline I2, Central = type: binding; settings: rat; 10 μM compound; Hit Profile Panel
Muscarinic M3 = Muscarinic M3 (Homo sapiens, UniProt P20309); type: binding; settings: 10 μM compound, Hit Profile Panel
Nicotinic Acetylcholine = type: binding; settings: human; 10 μM compound; Hit Profile Panel
[5] = target: Nicotinic Acetylcholine a1, Bungarotoxin (Homo sapiens, UniProt P02708+P07510+Q07001); type: binding; settings: for inhibition at 10 µM: read-out: % Inhibition, Nicotinic Acetylcholine a1, Bungarotoxin
Prostanoid EP4 = Prostanoid EP4 (Homo sapiens, UniProt P35408); type: binding; settings: 10 μM compound, Hit Profile Panel
Rolipram = type: binding; settings: rat; 10 μM compound; Hit Profile Panel
[6] = target: Seritonin (5-Hydroxytryptamine) 5-HT2B (Homo sapiens, UniProt P41595); type: binding; settings: 10 μM compound, Hit Profile Panel
Sodium Channel, Site 2 = type: binding; settings: rat; 10 μM compound; Hit Profile Panel
[7] = target: Transporter, Norepinephrine (NET) (Homo sapiens, UniProt P23975); type: binding; settings: 10 μM compound, Hit Profile Panel
CYP450, 1A2 = CYP450, 1A2 (Homo sapiens, UniProt P05177); settings: 10 µM
CYP450, 2C19 = CYP450, 2C19 (Homo sapiens, UniProt P33261); settings: 10 µM
CYP450, 2C9 = CYP450, 2C9 (Homo sapiens, UniProt P11712); settings: 10 µM
Potassium Channel hERG = Potassium Channel hERG (Homo sapiens, UniProt Q12809); settings: 10 µM
CYP1A2 = CYP1A2 (Homo sapiens, UniProt P05177)
CYP2C19 = CYP2C19 (Homo sapiens, UniProt P33261)
CYP2C9 = CYP2C9 (Homo sapiens, UniProt P11712)
hERG potassium channel = hERG potassium channel (Homo sapiens, UniProt Q12809)
N. gonorrhoeae = experiment: MIC (Table 2B); type: cell-based; settings: Neisseria gonorrhoeae; Table 2B, strain not given; read-out: N. gonorrhoeae MIC

Sequence of Adrenergic β1 (P08588 whole entry): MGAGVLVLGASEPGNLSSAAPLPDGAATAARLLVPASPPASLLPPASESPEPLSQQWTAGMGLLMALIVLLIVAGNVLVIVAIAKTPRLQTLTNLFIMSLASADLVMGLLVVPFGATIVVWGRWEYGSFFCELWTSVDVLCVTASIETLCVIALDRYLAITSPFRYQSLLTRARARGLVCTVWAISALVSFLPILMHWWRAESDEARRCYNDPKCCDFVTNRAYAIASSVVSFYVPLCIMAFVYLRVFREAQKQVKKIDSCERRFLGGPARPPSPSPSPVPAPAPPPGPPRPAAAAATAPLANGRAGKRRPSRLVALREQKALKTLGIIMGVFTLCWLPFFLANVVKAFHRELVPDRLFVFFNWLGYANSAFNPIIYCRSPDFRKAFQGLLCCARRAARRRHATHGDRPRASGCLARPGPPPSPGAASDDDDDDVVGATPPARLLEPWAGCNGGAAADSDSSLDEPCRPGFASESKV
Sequence of Dopamine D2s (P14416 1-414 isoform P14416-2): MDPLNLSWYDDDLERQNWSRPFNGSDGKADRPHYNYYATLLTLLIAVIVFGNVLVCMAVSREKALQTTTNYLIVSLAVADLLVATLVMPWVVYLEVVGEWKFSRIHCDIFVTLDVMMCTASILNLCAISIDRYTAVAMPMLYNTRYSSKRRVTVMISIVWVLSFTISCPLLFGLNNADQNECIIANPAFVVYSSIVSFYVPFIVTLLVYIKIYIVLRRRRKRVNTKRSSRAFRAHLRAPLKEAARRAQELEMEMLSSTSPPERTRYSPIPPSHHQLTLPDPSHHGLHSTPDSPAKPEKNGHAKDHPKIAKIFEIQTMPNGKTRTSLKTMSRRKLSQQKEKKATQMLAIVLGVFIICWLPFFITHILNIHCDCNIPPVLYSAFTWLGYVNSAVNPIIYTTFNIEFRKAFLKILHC
Sequence of Nicotinic Acetylcholine a1, Bungarotoxin (P02708 21-457): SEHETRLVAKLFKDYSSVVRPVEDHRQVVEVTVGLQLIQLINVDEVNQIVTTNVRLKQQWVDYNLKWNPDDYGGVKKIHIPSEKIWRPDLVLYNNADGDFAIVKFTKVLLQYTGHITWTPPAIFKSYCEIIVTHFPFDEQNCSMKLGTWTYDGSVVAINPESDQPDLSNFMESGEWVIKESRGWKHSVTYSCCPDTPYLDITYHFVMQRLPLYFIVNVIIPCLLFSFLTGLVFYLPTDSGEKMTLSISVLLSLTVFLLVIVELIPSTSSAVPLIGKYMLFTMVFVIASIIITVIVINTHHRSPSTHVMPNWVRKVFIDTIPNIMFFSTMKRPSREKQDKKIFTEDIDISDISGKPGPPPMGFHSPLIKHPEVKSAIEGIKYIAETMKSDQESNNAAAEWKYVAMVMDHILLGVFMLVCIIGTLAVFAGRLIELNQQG
Sequence of Nicotinic Acetylcholine a1, Bungarotoxin (P07510 23-517): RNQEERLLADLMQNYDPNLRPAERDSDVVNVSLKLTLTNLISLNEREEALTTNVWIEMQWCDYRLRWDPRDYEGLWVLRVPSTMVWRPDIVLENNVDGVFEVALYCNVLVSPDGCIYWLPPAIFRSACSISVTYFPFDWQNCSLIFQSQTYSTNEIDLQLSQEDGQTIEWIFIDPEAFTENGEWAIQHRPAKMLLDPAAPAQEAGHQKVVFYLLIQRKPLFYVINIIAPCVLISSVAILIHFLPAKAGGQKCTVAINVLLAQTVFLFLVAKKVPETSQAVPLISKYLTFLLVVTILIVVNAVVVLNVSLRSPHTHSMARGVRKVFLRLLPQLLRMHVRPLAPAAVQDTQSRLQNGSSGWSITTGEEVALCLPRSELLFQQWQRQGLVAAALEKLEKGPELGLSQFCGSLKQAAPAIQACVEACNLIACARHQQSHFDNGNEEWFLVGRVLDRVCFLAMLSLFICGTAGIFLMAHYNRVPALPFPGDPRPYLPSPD
Sequence of Nicotinic Acetylcholine a1, Bungarotoxin (Q07001 22-517): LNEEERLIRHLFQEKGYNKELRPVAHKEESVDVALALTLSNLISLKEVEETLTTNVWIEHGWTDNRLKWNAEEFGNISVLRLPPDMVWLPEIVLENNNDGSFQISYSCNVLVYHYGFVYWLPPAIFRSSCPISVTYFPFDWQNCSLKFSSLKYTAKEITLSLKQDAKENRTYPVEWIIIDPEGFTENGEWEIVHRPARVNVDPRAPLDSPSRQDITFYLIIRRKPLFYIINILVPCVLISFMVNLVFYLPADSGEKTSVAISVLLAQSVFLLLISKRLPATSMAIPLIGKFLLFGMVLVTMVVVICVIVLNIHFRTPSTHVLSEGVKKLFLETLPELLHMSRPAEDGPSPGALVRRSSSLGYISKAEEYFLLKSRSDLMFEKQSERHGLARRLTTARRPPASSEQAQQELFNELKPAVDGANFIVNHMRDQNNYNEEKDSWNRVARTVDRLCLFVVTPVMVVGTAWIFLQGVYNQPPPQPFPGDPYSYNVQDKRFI
Sequence of Nicotinic Acetylcholine a1, Bungarotoxin (P11230 24-501, further chain): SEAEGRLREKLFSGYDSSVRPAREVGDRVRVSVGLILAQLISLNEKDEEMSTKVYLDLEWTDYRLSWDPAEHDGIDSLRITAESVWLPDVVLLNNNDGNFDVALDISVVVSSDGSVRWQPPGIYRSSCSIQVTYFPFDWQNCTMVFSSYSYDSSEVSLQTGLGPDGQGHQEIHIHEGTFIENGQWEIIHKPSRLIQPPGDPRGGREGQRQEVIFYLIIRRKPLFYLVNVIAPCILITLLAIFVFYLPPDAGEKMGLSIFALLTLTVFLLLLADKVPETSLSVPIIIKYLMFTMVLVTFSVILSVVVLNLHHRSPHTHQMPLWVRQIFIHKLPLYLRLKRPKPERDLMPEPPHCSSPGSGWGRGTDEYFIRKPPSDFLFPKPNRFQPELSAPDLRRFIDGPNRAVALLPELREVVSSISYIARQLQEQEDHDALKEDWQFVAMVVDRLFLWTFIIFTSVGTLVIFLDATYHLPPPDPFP
Sequence of Muscarinic M3 (P20309 whole entry): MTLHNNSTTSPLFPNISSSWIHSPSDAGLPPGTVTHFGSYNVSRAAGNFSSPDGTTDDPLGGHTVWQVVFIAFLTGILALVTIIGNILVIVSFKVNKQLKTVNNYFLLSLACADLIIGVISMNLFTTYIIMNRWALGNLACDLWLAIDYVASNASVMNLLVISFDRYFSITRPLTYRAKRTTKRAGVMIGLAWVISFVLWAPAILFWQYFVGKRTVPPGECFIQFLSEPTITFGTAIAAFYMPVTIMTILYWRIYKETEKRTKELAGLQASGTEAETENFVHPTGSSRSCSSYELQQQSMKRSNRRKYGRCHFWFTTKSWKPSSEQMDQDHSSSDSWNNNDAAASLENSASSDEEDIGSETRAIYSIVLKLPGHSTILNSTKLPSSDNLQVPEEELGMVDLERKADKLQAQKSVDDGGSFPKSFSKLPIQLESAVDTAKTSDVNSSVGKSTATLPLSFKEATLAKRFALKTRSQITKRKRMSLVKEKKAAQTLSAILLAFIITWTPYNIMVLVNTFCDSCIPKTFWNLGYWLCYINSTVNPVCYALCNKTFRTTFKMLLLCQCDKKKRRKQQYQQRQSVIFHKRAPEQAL
Sequence of Transporter, Norepinephrine (NET) (P23975 whole entry): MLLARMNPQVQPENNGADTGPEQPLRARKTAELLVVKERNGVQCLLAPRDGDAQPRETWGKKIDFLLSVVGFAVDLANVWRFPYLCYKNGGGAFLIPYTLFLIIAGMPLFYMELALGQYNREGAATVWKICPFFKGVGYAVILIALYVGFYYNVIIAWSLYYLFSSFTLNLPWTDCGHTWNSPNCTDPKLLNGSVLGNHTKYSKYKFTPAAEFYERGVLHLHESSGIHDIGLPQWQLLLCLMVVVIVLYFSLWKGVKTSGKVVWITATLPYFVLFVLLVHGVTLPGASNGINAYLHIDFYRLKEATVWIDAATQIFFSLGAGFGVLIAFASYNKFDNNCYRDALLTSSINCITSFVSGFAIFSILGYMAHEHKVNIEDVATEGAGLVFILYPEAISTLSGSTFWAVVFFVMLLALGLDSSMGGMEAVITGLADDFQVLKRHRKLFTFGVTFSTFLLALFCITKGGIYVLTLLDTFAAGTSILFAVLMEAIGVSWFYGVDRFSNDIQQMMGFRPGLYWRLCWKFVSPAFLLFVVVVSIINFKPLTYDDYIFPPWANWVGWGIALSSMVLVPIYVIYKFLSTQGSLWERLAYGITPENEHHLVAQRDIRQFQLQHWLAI
Sequence of Cannabinoid CB1 (P21554 whole entry): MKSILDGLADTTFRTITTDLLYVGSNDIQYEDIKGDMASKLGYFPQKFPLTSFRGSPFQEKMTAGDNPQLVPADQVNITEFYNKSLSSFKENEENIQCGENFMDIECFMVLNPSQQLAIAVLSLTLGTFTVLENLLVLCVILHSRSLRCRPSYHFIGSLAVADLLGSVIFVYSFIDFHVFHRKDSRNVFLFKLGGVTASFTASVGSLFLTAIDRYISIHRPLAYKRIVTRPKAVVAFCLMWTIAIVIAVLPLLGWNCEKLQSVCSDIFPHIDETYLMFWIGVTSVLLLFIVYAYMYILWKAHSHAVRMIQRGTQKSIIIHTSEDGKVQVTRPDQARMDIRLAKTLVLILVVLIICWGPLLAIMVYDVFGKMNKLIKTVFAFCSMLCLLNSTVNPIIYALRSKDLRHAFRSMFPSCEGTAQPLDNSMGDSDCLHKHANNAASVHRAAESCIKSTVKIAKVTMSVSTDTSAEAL
Sequence of Seritonin (5-Hydroxytryptamine) 5-HT2B (P41595 whole entry): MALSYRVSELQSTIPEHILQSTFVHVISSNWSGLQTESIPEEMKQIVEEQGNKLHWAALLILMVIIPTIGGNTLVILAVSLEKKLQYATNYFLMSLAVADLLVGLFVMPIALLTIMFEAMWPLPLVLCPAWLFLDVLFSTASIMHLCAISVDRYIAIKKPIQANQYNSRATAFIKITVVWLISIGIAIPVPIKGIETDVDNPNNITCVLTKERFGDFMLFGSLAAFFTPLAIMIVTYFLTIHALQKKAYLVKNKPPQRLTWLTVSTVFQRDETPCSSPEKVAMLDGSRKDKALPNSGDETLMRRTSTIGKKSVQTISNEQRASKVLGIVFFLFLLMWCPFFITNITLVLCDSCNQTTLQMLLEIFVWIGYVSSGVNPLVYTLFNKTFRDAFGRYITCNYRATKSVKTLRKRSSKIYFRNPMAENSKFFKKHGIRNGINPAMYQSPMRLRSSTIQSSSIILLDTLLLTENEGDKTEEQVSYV

SMILES | % Inhibition, Calcium Channel L-type, Dihydropyridine [3] [%] | % Inhibition, Glutamate, NMDA, Phencyclidine [4] [%] | % Inhibition, Imidazoline I2, Central (Imidazoline I2, Central) [%] | % Inhibition, Nicotinic Acetylcholine (Nicotinic Acetylcholine) [%] | % Inhibition, Rolipram (Rolipram) [%] | % Inhibition, Sodium Channel, Site 2 (Sodium Channel, Site 2) [%] | inhibition at 10 µM (Adrenergic α1A) [%] | inhibition at 10 µM (Adrenergic α2A) [%] | inhibition at 10 µM (Adrenergic β1) [%] | inhibition at 10 µM (Cannabinoid CB1) [%] | inhibition at 10 µM (Dopamine D2s) [%] | inhibition at 10 µM (Muscarinic M3) [%] | inhibition at 10 µM [5] [%] | inhibition at 10 µM (Prostanoid EP4) [%] | inhibition at 10 µM [6] [%] | inhibition at 10 µM [7] [%] | inhibition at 10 µM (CYP1A2) [%] | inhibition at 10 µM (CYP2C19) [%] | inhibition at 10 µM (CYP2C9) [%] | inhibition at 10 µM (hERG potassium channel) [%] | other results
O=C(Nc1nnc(-c2ccc(F)cc2)o1)N1CCc2ccccc2C1 [MBX-4132] | 15 | −3 | 33 | −8 | 2 | 4 |  |  |  |  |  |  |  |  |  |  |  |  |  |  | bioavailability, available from oral dosing [1]: > 75%; drop in CFU/g [2]: > 2 log; % Inhibition, Adrenergic α1A (Adrenergic α1A): 24%; % Inhibition, Adrenergic α2A (Adrenergic α2A): 54%; % Inhibition, Adrenergic β1 (Adrenergic β1): −10%; % Inhibition, Cannabinoid CB1 (Cannabinoid CB1): 14%; % Inhibition, Dopamine D2s (Dopamine D2s): 25%; % Inhibition, Muscarinic M3 (Muscarinic M3): 16%; % Inhibition, Nicotinic Acetylcholine a1, Bungarotoxin ([5]; human, 10 μM compound, Hit Profile Panel): 0%; % Inhibition, Prostanoid EP4 (Prostanoid EP4): 18%; % Inhibition, Seritonin (5-Hydroxytryptamine) 5-HT2B [6]: 53%; % Inhibition, Transporter, Norepinephrine (NET) [7]: 50%; % Inhibition, CYP450, 1A2 (CYP450, 1A2): 9%; % Inhibition, CYP450, 2C19 (CYP450, 2C19): 44%; % Inhibition, CYP450, 2C9 (CYP450, 2C9): 10%; % Inhibition, Potassium Channel hERG (Potassium Channel hERG): 64%
O=C(Nc1nnc(-c2ccc(F)cc2)o1)N1CC=C(C(F)(F)F)CC1 [compound 4347] | 16 | 5 | −5 | −4 | −6 | −5 | -21 | 9 | 3 | 0 | -2 | 2 | 2 | -4 | -1 | 32 | 2 | 8 | 4 | 0 | 
O=C(Nc1nnc(-c2ccc(F)cc2)o1)c1ccc(OC2CCCCC2)cc1 [compound 4292] | 23 | 0 | 10 | 1 | −8 | −2 | 9 | 3 | 3 | 11 | 1 | 0 | -4 | 28 | -7 | 77 | 5 | 9 | 10 | 8 | MIC (N. gonorrhoeae): 0.09 µg/mL (≈ 0.236 µM)
